In patent US20260053886A1, “ANTICANCER AGENT” (The Trustees of Princeton University, priority 2022, published 2026):
Values after ≈ are worked out from the molar mass of the structure shown. Values joined by “and” are separate entries in the source; they are usually repeats but may differ in a detail not shown here. Equal values may be shown once. Read-outs that look alike come from different tables or passages of the source. Non-standard residues stand in square brackets, D forms with d. Residues, ends and D or L forms follow the SMILES beside them. Phe(βS-OH) = N[C@H](C(=O)O)[C@@H](O)c1ccccc1; NMeH = CN[C@@H](Cc1c[nH]cn1)C(=O)O; Hyp = O=C(O)[C@@H]1C[C@@H](O)CN1; NMeF = CN[C@@H](Cc1ccccc1)C(=O)O; NMeL = CN[C@@H](CC(C)C)C(=O)O; Dap = NC[C@H](N)C(=O)O; Sar = CNCC(=O)O

Experiments:
[1] = system: momomycin production in S. rimosus Δrim::aprR; assay: induction of momomycin production (HR-HPLC-MS extracted ion chromatograms); assay type: cell-based; details: Streptomyces rimosus, 120 h, read-out: half-maximal elicitor concentration (EC50)
Procedure: A seed culture of S. rimosus Δrim::apr^R was inoculated in TSBY medium as described above, which was used to start fermentation cultures in 125 mL Erlenmeyer flasks with the final concentration of cells of 0.05% (w/v). Each flask contained 25 mL R4 medium, supplemented with various concentrations of elicitors or equal volumes of DMSO as control. After 5 d of cultivation at 30° C./250 rpm, the cultures were spun down and processed by solid phase extraction (SPE). Specifically, 5 mL of supernatant was filtered and loaded onto STRATA® C18-E column (Phenomenex, 55 μm, 70 Å, 50 mg), which had been activated with MeOH and equilibrated with H2O. The column was washed with 1 mL H2O and eluted by 1 mL MeOH. The samples in MeOH were dried in vacuo, resuspended in 50 μL MeCN in H2O, and subjected to HR-HPLC-MS analysis.
(§1) Separately, small-scale fermentation of S. rimosus Δrim::apr^R was performed as described above with the following concentrations of phytosphingosine: 0, 1.25, 2.5, 5, 10, 20, 40, 80, 160 μM. After 5 d, cells were collected by centrifugation (4000 g, 1 h) and the wet weight of pellets were measured.
Cell viability relative to DMSO-treated samples were graphed and fit to a dose-response curve in Prism 9 to obtain the IC50 value. In addition, culture supernatants were processed via SPE as described above and samples were subjected to HR-HPLC-MS analysis. […]

[2] = system: S. rimosus Δrim::aprR; assay: antimicrobial activity, cell viability (wet pellet weight) relative to DMSO; assay type: cell-based; details: Streptomyces rimosus, 120 h, read-out: half-maximal inhibitory concentration (IC50)
Procedure: as §1
Cell viability relative to DMSO-treated samples were graphed and fit to a dose-response curve in Prism 9 to obtain the IC50 value. In addition, culture supernatants were processed via SPE as described above and samples were subjected to HR-HPLC-MS analysis. The extracted ion chromatograms of momomycin were integrated and the data were graphed to represent the induction effect of phytosphingosine on momomycin production at different concentrations. All data points were taken from biological duplicates.

[3] = system: colon cancer cell line HCT116; assay: anticancer assay, growth inhibition, dose-response; assay type: cell-based
[4] = system: E. coli K12; assay: effect on microbial growth (MIC)
[5] = system: S. epidermidis; assay: effect on microbial growth (MIC); assay type: cell-based
[6] = system: S. cerevisiae; assay: effect on microbial growth (MIC)
[7] = system: S. aureus Newman; assay: effect on microbial growth (MIC); assay type: cell-based
[8] = system: V. cholerae; assay: effect on microbial growth (MIC)
[9] = system: M. luteus; assay: effect on microbial growth (MIC); assay type: cell-based
[10] = system: E. faecalis OG1RF; assay: effect on microbial growth (MIC); assay type: cell-based
[11] = system: B. subtilis 168; assay: effect on microbial growth (MIC)
[12] = system: breast cancer cell line MDA-MB-231; assay: anticancer assay, growth inhibition, dose-response; assay type: cell-based
[13] = system: S. pombe; assay: effect on microbial growth (MIC)
[14] = system: P. aeruginosa PAO1; assay: effect on microbial growth (MIC); assay type: cell-based
[15] = system: B. subtilis 3610; assay: effect on microbial growth (MIC); assay type: cell-based

SMILES: CCCCCCCCCCCCCC[C@@H](O)[C@@H](O)[C@@H](N)CO [phytosphingosine]
- EC50 [1]: 16.9 µM
- IC50 [2]: 37.8 µM

SMILES: CC(C)C[C@H]1C(=O)N(C)[C@@H](Cc2ccccc2)C(=O)N[C@@H](Cc2ccc(O)cc2)C(=O)N[C@@H]([C@@H](O)c2ccccc2)C(=O)N[C@@H](CC(=O)O)C(=O)N(C)CC(=O)N[C@@H](CN)C(=O)N2C[C@H](O)C[C@H]2C(=O)N[C@@H](CN)C(=O)N(C)[C@@H](Cc2ccccc2)C(=O)N(C)[C@@H](Cc2cnc[nH]2)C(=O)N1C [momomycin] (cyclo(D[Sar][Dap][Hyp][Dap][NMeF][NMeH][NMeL][NMeF]Y[Phe(βS-OH)]))
- IC50 ([3]; colorectal carcinoma / colon cancer cell line HCT116, FIG. 2A, read-out: IC50): 1.1 µM and ~1.1 µM
- IC50 ([3]; colorectal carcinoma HCT116, dose-response curve FIG. 2A): 1.5 µg/mL
- minimum inhibitory concentration (MIC) [4]: above 64 μg/mL
- minimum inhibitory concentration (MIC) [5]: above 64 μg/mL
- minimum inhibitory concentration (MIC) [6]: above 64 μg/mL
- minimum inhibitory concentration (MIC) [7]: above 64 μg/mL
- minimum inhibitory concentration (MIC) [8]: above 64 μg/mL
- minimum inhibitory concentration (MIC) [9]: 64 µg/mL (≈ 45.8 µM)
- minimum inhibitory concentration (MIC) [10]: above 64 μg/mL
- minimum inhibitory concentration (MIC) [11]: above 64 μg/mL
- IC50 ([12]; adenocarcinoma MDA-MB-231, FIG. 2B, read-out: IC50): 1.2 µM
- IC50 ([12]; adenocarcinoma MDA-MB-231, dose-response curve FIG. 2B): 1.7 µg/mL
- minimum inhibitory concentration (MIC) [13]: above 64 μg/mL
- minimum inhibitory concentration (MIC) [14]: above 64 μg/mL
- minimum inhibitory concentration (MIC) [15]: above 64 μg/mL
